Source: patent US11878975B2, “Substituted indole compounds useful as TLR inhibitors” (BRISTOL-MYERS SQUIBB COMPANY, priority 2017, dated 2024)

Columns and labels:
Type in all cases: cell-based
human TLR8 = biological target: T1, human TLR8 (Homo sapiens, UniProt Q9NR97); assay: TLR8 inhibition reporter assay (HEK-Blue cells, SEAP reporter, R848 stimulation); details: HEK-Blue cells overexpressing human TLR8, SEAP reporter, R848 15.9 μM
T1 construct: host or cells: HEK-Blue cells
T1 sequence (Q9NR97 27-1041): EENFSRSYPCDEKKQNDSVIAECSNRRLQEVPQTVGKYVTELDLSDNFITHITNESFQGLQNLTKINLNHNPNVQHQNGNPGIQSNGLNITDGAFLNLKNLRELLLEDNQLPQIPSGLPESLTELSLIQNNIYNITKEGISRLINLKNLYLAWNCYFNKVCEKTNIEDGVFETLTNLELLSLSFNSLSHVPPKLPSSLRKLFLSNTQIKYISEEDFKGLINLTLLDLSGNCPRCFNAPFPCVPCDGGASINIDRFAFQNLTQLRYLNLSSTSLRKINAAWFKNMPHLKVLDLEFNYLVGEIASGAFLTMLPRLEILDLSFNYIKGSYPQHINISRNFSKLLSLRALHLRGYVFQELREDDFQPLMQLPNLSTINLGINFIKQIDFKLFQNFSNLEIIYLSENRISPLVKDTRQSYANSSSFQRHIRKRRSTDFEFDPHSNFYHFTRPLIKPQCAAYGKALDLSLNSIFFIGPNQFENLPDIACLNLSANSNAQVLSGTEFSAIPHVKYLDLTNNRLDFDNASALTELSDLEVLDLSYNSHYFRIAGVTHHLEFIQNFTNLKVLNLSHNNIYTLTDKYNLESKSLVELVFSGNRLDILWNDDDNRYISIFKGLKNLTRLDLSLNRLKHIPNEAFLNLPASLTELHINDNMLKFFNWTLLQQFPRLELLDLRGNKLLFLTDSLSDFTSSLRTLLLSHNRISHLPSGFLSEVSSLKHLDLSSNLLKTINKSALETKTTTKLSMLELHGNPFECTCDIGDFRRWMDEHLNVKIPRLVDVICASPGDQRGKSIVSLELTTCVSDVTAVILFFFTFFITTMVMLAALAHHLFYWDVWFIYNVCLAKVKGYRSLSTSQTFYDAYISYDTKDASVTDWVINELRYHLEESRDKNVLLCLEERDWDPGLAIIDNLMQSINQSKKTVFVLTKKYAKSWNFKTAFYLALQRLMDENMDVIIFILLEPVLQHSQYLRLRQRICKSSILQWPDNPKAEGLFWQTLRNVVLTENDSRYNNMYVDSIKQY
Outline: (§1)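 Percent inhibition is derived from SEAP signal, scaled between agonist-plus-DMSO wells and wells given a known inhibitor. Test compounds (0.05 nM–50 μM) are pre-incubated 30 min at room temperature before agonist addition (TLR7: 7.5 μM gardiquimod; TLR8: 15.9 μM R848; TLR9: 5 nM ODN2006) and 22 h culture at 37 °C.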

human TLR7 = biological target: T2, human TLR7 (Homo sapiens, UniProt Q9NYK1); assay: TLR7 inhibition reporter assay (HEK-Blue cells, SEAP reporter, gardiquimod stimulation); details: HEK-Blue cells overexpressing human TLR7, SEAP reporter, gardiquimod 7.5 μM
T2 construct: host or cells: HEK-Blue cells
T2 sequence (Q9NYK1 27-1049): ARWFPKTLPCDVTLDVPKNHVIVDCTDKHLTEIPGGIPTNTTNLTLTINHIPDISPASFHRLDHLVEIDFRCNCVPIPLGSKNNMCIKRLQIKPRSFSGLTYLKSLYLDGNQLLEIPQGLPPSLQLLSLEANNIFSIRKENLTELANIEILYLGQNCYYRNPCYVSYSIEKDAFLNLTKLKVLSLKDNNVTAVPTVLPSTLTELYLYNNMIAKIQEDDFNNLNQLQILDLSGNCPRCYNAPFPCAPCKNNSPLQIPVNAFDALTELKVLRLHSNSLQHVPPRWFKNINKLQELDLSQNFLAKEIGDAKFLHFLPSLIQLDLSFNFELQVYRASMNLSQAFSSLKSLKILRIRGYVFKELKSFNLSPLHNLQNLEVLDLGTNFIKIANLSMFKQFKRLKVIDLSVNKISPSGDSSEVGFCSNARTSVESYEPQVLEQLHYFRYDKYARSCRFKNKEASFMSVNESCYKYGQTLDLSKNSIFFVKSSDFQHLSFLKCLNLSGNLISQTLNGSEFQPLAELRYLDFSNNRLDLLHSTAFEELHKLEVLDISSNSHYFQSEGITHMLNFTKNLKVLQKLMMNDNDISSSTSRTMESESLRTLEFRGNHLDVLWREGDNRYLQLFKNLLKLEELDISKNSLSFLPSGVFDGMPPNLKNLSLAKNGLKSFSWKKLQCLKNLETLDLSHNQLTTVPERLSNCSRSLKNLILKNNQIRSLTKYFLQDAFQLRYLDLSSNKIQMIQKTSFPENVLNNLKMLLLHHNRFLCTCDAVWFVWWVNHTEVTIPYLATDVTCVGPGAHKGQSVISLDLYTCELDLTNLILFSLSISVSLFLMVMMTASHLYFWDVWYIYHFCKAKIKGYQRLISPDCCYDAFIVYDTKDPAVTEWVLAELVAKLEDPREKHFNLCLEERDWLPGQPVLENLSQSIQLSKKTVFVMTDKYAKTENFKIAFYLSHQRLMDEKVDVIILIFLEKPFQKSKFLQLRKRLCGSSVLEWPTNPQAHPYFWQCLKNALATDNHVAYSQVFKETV
Outline: as §1

human TLR9 = biological target: T3, human TLR9 (Homo sapiens, UniProt Q9NR96); assay: TLR9 inhibition reporter assay (HEK-Blue cells, SEAP reporter, ODN2006 stimulation); details: HEK-Blue cells overexpressing human TLR9, SEAP reporter, ODN2006 5 nM
T3 construct: host or cells: HEK-Blue cells
T3 sequence (Q9NR96 26-1032): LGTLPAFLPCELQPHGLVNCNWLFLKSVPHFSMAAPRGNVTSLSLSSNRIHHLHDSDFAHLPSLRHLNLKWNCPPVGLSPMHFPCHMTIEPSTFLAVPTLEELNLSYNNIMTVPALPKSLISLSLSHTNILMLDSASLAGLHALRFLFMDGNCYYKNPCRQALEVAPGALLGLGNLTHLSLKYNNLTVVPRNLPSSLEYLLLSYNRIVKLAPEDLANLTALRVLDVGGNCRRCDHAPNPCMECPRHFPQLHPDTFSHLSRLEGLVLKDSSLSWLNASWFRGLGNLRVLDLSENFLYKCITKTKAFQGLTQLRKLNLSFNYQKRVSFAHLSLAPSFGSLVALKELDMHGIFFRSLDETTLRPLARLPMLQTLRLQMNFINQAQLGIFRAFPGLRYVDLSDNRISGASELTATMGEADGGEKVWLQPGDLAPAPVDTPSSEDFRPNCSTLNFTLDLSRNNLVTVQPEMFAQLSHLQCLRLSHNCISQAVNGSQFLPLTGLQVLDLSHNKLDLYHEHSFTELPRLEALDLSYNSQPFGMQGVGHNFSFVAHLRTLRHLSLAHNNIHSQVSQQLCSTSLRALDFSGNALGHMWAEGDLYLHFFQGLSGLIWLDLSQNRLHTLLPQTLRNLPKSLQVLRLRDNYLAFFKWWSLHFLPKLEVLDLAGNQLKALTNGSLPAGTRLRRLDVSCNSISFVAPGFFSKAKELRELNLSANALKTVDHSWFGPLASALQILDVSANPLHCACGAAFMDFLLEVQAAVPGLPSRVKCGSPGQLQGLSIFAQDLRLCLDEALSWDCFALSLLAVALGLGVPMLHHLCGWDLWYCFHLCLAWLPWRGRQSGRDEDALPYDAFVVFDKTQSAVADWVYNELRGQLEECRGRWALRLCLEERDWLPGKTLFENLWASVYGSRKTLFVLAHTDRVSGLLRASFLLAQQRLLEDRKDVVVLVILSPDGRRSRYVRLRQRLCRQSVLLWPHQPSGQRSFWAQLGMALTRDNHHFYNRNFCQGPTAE
Outline: as §1

Structure (SMILES)	IC50 (human TLR8) [nM]	IC50 (human TLR7) [nM]	IC50 (human TLR9) [nM]
Cc1c(-c2[nH]c3ccc(C4CC5CN(C6CCOCC6)CC5C4)cc3c2C(C)C)cn2cnnc2c1C (stereo not drawn) [Example 563]	3130	1270	38200
Cc1c(-c2[nH]c3ccc(C4CN(C(=O)CN(C)C)C4)cc3c2C(C)C)cn2ncnc2c1C [Example 564]	7	3	7310
COc1cc(-c2[nH]c3ccc(C4CC(NC(=O)CN(C)C)C4)cc3c2C(C)C)cn2ncnc12 (stereo not drawn) [Example 569]	0.62	0.32	4550
Cc1c(-c2[nH]c3ccc(C4CC(NC(=O)CN(C)C)C4)cc3c2C(C)C)cn2ncnc2c1C (stereo not drawn) [Example 573]	2.3	3	12600
Cc1c(-c2[nH]c3ccc(C4CC(N(C)C)C4)cc3c2C(C)C)cn2ncnc2c1C (stereo not drawn) [Example 574]	0.58	1	4250
Cc1c(-c2[nH]c3ccc(C4CC(NC5COC5)C4)cc3c2C(C)C)cn2ncnc2c1C (stereo not drawn) [Example 575]	1.1	4	22300
COc1cc(-c2[nH]c3ccc(C4CC(NC5COC5)C4)cc3c2C(C)C)cn2ncnc12 (stereo not drawn) [Example 579]	0.73	1	7410
COc1cc(-c2[nH]c3ccc(C4CC(N(C)CCS(C)(=O)=O)C4)cc3c2C(C)C)cn2ncnc12 (stereo not drawn) [Example 583]	0.32	0.99	31000
COc1cc(-c2[nH]c3ccc(C4CC(N(C)C(=O)CN(C)C)C4)cc3c2C(C)C)cn2ncnc12 (stereo not drawn) [Example 588]	1.4	0.4	1870
Cc1cc(-c2[nH]c3ccc(C4CCNC4)cc3c2C(C)C)cc(C)n1 (stereo not drawn) [Example 590]	0.5	5	930
Cc1cc(-c2[nH]c3ccc(C4CCN(C(=O)CN(C)C)C4)cc3c2C(C)C)cc(C)n1 (stereo not drawn) [Example 591]	8.7	8	1010
COc1ccc(-c2[nH]c3ccc(C4CCCNC4)cc3c2C(C)C)cc1OC (stereo not drawn) [Example 592]	10	31	1470

More lines, in order of falling IC50 (human TLR8), values ahead:

IC50 (human TLR8) [nM]	IC50 (human TLR7) [nM]	IC50 (human TLR9) [nM]	Structure (SMILES)
5.7	5	21300	COc1cc(-c2[nH]c3ccc(C4CC(N(C)CCS(C)(=O)=O)C4)cc3c2C(C)C)cn2ncnc12 (stereo not drawn) [Example 587]
3.8	2	5650	Cc1c(-c2[nH]c3ccc(C4CC(N(C)C(=O)CN(C)C)C4)cc3c2C(C)C)cn2ncnc2c1C (stereo not drawn) [Example 584]
3.8	13	44000	Cc1c(-c2[nH]c3ccc(C4CC(N(C)CCS(C)(=O)=O)C4)cc3c2C(C)C)cn2ncnc2c1C (stereo not drawn) [Example 586]
2.9	0.55	2810	COc1cc(-c2[nH]c3ccc(C4CC(N(C)C(=O)CN(C)C)C4)cc3c2C(C)C)cn2ncnc12 (stereo not drawn) [Example 585]
2.8	2	5410	Cc1c(-c2[nH]c3ccc(C4CC(N(C)C(=O)CN(C)C)C4)cc3c2C(C)C)cn2ncnc2c1C (stereo not drawn) [Example 589]
1.1	2	26700	Cc1c(-c2[nH]c3ccc(C4CC(NCC#N)C4)cc3c2C(C)C)cn2ncnc2c1C (stereo not drawn) [Example 567]
0.9	0.93	3450	COc1cc(-c2[nH]c3ccc(C4CC(NCC(=O)N(C)C)C4)cc3c2C(C)C)cn2ncnc12 (stereo not drawn) [Example 570]
0.76	0.53	980	COc1cc(-c2[nH]c3ccc(C4CC(N)C4)cc3c2C(C)C)cn2ncnc12 (stereo not drawn) [Example 568]
0.61	0.59	6440	Cc1c(-c2[nH]c3ccc(C4CC(NC(=O)CN(C)C)C4)cc3c2C(C)C)cn2ncnc2c1C (stereo not drawn) [Example 578]
0.6	1	4450	Cc1c(-c2[nH]c3ccc(C4CC(NCC(=O)N(C)C)C4)cc3c2C(C)C)cn2ncnc2c1C (stereo not drawn) [Example 566]
0.56	3	35700	Cc1c(-c2[nH]c3ccc(C4CC(N(C)CCS(C)(=O)=O)C4)cc3c2C(C)C)cn2ncnc2c1C (stereo not drawn) [Example 582]
0.33	0.53	2320	COc1cc(-c2[nH]c3ccc(C4CC(NCCS(C)(=O)=O)C4)cc3c2C(C)C)cn2ncnc12 (stereo not drawn) [Example 571]
0.31	0.93	4960	Cc1c(-c2[nH]c3ccc(C4CC(NCCS(C)(=O)=O)C4)cc3c2C(C)C)cn2ncnc2c1C (stereo not drawn) [Example 572]
